# In patent publication US6737383B1, “Herbicidal oxadiazolidines” (priority 1999, dated 2004):
# Columns and labels:
# rice = assay: Test B flood test rice; format: in vivo, Oryza sativa
# How it was run: (§1)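 Flood test on plants grown to the 2-leaf stage; treated plants kept in greenhouse twelve to sixteen days, then visually rated against controls on a 0 (no effect) to 10 (complete control) scale.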
# pigweed = assay: Test B pre/postemergence pigweed; format: in vivo, Amaranthus retroflexus
# How it was run: (§2)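 Test chemicals in a non-phytotoxic solvent mixture with surfactant were sprayed preemergence onto planted seeds and postemergence onto plants 2 to 18 cm tall (1- to 4-leaf stage). After twelve to sixteen days in a greenhouse, injury was visually rated against untreated controls from 0 (no effect) to 10 (complete control).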
# wild oat = assay: Test B pre/postemergence wild oat; format: in vivo, Avena fatua
# How it was run: as §2
# bedstraw = assay: Test B pre/postemergence bedstraw; format: in vivo, Galium aparine
# How it was run: as §2
# rape = assay: Test B pre/postemergence rape; format: in vivo, Brassica napus
# How it was run: as §2
# purple nutsedge = assay: Test B pre/postemergence purple nutsedge; format: in vivo, Cyperus rotundus
# How it was run: as §2
# sugar beet = assay: Test B pre/postemergence sugar beet; format: in vivo, Beta vulgaris
# How it was run: as §2
# corn = assay: Test B pre/postemergence corn; format: in vivo, Zea mays
# How it was run: as §2
# wheat = assay: Test B pre/postemergence wheat; format: in vivo, Triticum aestivum
# How it was run: as §2
# soybean = assay: Test B pre/postemergence soybean; format: in vivo, Glycine max
# How it was run: as §2
# surinam grass = assay: Test B pre/postemergence surinam grass; format: in vivo, Brachiaria decumbens
# How it was run: as §2
# duck salad = assay: Test B flood test duck salad; format: in vivo, Heteranthera limosa
# How it was run: as §1
# velvetleaf = assay: Test B pre/postemergence velvetleaf; format: in vivo, Abutilon theophrasti
# How it was run: as §2
# giant foxtail = assay: Test B pre/postemergence giant foxtail; format: in vivo, Setaria faberii
# How it was run: as §2
# cocklebur = assay: Test B pre/postemergence cocklebur; format: in vivo, Xanthium strumarium
# How it was run: as §2
# smallflower flatsedge = assay: Test B flood test smallflower flatsedge; format: in vivo, Cyperus difformis
# How it was run: as §1
# [1] = Postemergence, Rate 62 g/ha, scale 0 to 10, 0 is no effect, 10 is complete control
# [2] = Rate 125 g/ha, Postemergence section (flood test species), scale 0 to 10, 0 no effect, 10 complete control
# [3] = Rate 500 g/ha, Postemergence section of Table B, 0 to 10 scale (0 no effect, 10 complete control)
# [4] = flood test, listed under Postemergence, Rate 250 g/ha, scale 0 to 10, 0 no effect, 10 complete control
# [5] = Postemergence, Rate 250 g/ha, scale 0 to 10, 0 no effect, 10 complete control
# [6] = Preemergence, Rate 62 g/ha, scale 0 to 10, 0 is no effect, 10 is complete control
# [7] = Preemergence, Rate 125 g/ha, scale 0 to 10 (0 no effect, 10 complete control)
# [8] = Preemergence, Rate 250 g/ha, scale of 0 to 10 where 0 is no effect and 10 is complete control
# [9] = Preemergence, Rate 500 g/ha, scale 0 (no effect) to 10 (complete control)
# [10] = Rate 125 g/ha, Postemergence, scale 0 to 10, 0 no effect, 10 complete control
# [11] = Rate 500 g/ha, Postemergence, 0 to 10 scale (0 no effect, 10 complete control)
smiles,measurement,setting,value
Cc1ccccc1-n1c(=O)on(C(=O)N(C2=CCOCC2)C(C)C)c1=O [Compound 10],Rice plant response rating,rice; [1],0
same,Rice plant response rating,rice; [2],0
same,Rice plant response rating,rice; [3],0
same,Rice plant response rating,rice; [4],0
same,Redroot pigweed plant response rating,pigweed; [1],0
same,Redroot pigweed plant response rating,pigweed; [5],0
same,"Plant response rating, Redroot pigweed",pigweed; [6],0
same,"Plant response rating, Redroot pigweed",pigweed; [7],0
same,"Plant response rating, Redroot pigweed",pigweed; [8],0
same,Redroot pigweed plant response rating,pigweed; [9],0
same,Redroot pigweed plant response rating,pigweed; [10],0
same,Redroot pigweed plant response rating,pigweed; [11],0
same,Wild oats plant response rating,wild oat; [1],0
same,Wild oats plant response rating,wild oat; [5],0
same,"Plant response rating, Wild oats",wild oat; [7],0
same,"Plant response rating, Wild oats",wild oat; [8],0
same,Wild oats plant response rating,wild oat; [9],0
same,Wild oats plant response rating,wild oat; [10],0
same,Bedstraw plant response rating,bedstraw; [1],0
same,Bedstraw plant response rating,bedstraw; [5],0
same,"Plant response rating, Bedstraw",bedstraw; [6],0
same,"Plant response rating, Bedstraw",bedstraw; [7],0
same,"Plant response rating, Bedstraw",bedstraw; [8],0
same,Bedstraw plant response rating,bedstraw; [9],0
same,Bedstraw plant response rating,bedstraw; [10],0
same,Bedstraw plant response rating,bedstraw; [11],0
same,Rape plant response rating,rape; [1],0
same,Rape plant response rating,rape; [5],0
same,"Plant response rating, Rape",rape; [6],0
same,"Plant response rating, Rape",rape; [7],0
same,"Plant response rating, Rape",rape; [8],0
same,Rape plant response rating,rape; [9],0
same,Rape plant response rating,rape; [10],0
same,Rape plant response rating,rape; [11],0
same,Nutsedge plant response rating,purple nutsedge; [1],0
same,Nutsedge plant response rating,purple nutsedge; [5],0
same,"Plant response rating, Nutsedge",purple nutsedge; [6],0
same,"Plant response rating, Nutsedge",purple nutsedge; [7],0
same,"Plant response rating, Nutsedge",purple nutsedge; [8],0
same,Nutsedge plant response rating,purple nutsedge; [9],0
same,Nutsedge plant response rating,purple nutsedge; [10],0
same,Nutsedge plant response rating,purple nutsedge; [11],0
same,Sugarbeets plant response rating,sugar beet; [1],0
same,Sugarbeets plant response rating,sugar beet; [5],0
same,"Plant response rating, Sugarbeets",sugar beet; [6],0
same,"Plant response rating, Sugarbeets",sugar beet; [7],0
same,"Plant response rating, Sugarbeets",sugar beet; [8],0
same,Sugarbeets plant response rating,sugar beet; [9],0
same,Sugarbeets plant response rating,sugar beet; [10],0
same,Corn plant response rating,corn; [1],0
same,Corn plant response rating,corn; [5],0
same,"Plant response rating, Corn",corn; [6],0
same,"Plant response rating, Corn",corn; [7],0
same,"Plant response rating, Corn",corn; [8],0
same,Corn plant response rating,corn; [9],4
same,Corn plant response rating,corn; [10],0
same,Corn plant response rating,corn; [11],2
same,Wheat plant response rating,wheat; [1],0
same,Wheat plant response rating,wheat; [5],0
same,"Plant response rating, Wheat",wheat; [6],0
same,"Plant response rating, Wheat",wheat; [7],0
same,"Plant response rating, Wheat",wheat; [8],0
same,Wheat plant response rating,wheat; [9],0
same,Wheat plant response rating,wheat; [10],0
same,Soybean plant response rating,soybean; [1],3
same,Soybean plant response rating,soybean; [5],3
same,"Plant response rating, Soybean",soybean; [6],0
same,"Plant response rating, Soybean",soybean; [7],0
same,"Plant response rating, Soybean",soybean; [8],0
same,Soybean plant response rating,soybean; [9],0
same,Soybean plant response rating,soybean; [10],3
same,B. signalgrass plant response rating,surinam grass; [1],0
same,B. signalgrass plant response rating,surinam grass; [5],4
same,"Plant response rating, B. signalgrass",surinam grass; [6],0
same,"Plant response rating, B. signalgrass",surinam grass; [7],5
same,"Plant response rating, B. signalgrass",surinam grass; [8],8
same,B. signalgrass plant response rating,surinam grass; [9],8
same,B. signalgrass plant response rating,surinam grass; [10],0
same,B. signalgrass plant response rating,surinam grass; [11],4
same,Ducksalad plant response rating,duck salad; [1],0
same,Ducksalad plant response rating,duck salad; [2],0
same,Ducksalad plant response rating,duck salad; [3],0
same,Ducksalad plant response rating,duck salad; [4],0
same,Velvetleaf plant response rating,velvetleaf; [1],0
same,Velvetleaf plant response rating,velvetleaf; [5],0
same,"Plant response rating, Velvetleaf",velvetleaf; [6],0
same,"Plant response rating, Velvetleaf",velvetleaf; [7],0
same,"Plant response rating, Velvetleaf",velvetleaf; [8],0
same,Velvetleaf plant response rating,velvetleaf; [9],0
same,Velvetleaf plant response rating,velvetleaf; [10],0
same,Giant foxtail plant response rating,giant foxtail; [1],2
same,Giant foxtail plant response rating,giant foxtail; [5],8
same,"Plant response rating, Giant foxtail",giant foxtail; [6],3
same,"Plant response rating, Giant foxtail",giant foxtail; [7],6
same,"Plant response rating, Giant foxtail",giant foxtail; [8],9
same,Giant foxtail plant response rating,giant foxtail; [9],9
same,Giant foxtail plant response rating,giant foxtail; [10],5
same,Giant foxtail plant response rating,giant foxtail; [11],8
same,Cocklebur plant response rating,cocklebur; [1],0
same,Cocklebur plant response rating,cocklebur; [5],1
same,"Plant response rating, Cocklebur",cocklebur; [6],0
same,"Plant response rating, Cocklebur",cocklebur; [7],0
same,Cocklebur plant response rating,cocklebur; [9],0
same,Cocklebur plant response rating,cocklebur; [10],0
same,Cocklebur plant response rating,cocklebur; [11],3
same,S. Flatsedge plant response rating,smallflower flatsedge; [1],0
same,S. Flatsedge plant response rating,smallflower flatsedge; [2],0
same,S. Flatsedge plant response rating,smallflower flatsedge; [4],0
